# Experimental data published in patent US11787850B2, “Peptidic TGF-beta antagonists” (priority 2015, dated 2023).
# Columns and labels:
# Format in all cases: cell-based
# [1] = tested on: TGF-b induced cellular invasion of squamous cell carcinoma (A431) cells; experiment: Matrigel invasion assay, A431 cells; conditions: 10 nM peptide, 100 pM TGF-b, 24 hrs (FIG. 38)
# Procedure: A431 cancer cells (8000 cells) were seeded on a BioCoat™ Matrigel® Invasion Chamber and treated with 10 nM of P16.2 (negative peptide control), P16 or PA in the absence or presence of 100 pM TGF-b, followed by 24 hrs of incubation. Invasive cells (in the lower chambers) were stained by crystal violet dye, photographed and counted. Representative photos (A) and statistical plots of invasion (B) are shown. The data are shown as mean±SD of the number of invasive cells for three independent experiments. **P<0.01 and ***P<0.001 as compared with controls. […] Squamous cell carcinoma (epidermoid A431 and head and neck FaDu) cells were stimulated with 100 pM of TGF-b1, then treated with 10 nM of peptide 16.2, P16, PA or CD109 for 24 hours. Cells were analysed by Flow cytometry and CD133 positive cell population, which represent cancer stem cell population, were quantified.
# [2] = tested on: human keratinocyte HaCat cell migration; experiment: Wound closure assay, HaCat keratinocytes; conditions: 10 nM peptide, 100 pM TGF-β, 24 hours (FIG. 28)
# Procedure: FIGS. 28A and 28B show the results of wound closure assays performed using human keratinocyte HaCat cells. […] (FIG. 28A) Human Keratinocyte HaCat cells were starved for 24 hours, scratched with pipette tips, and then treated with 100 pM TGF-β and 10 nM CD109-based peptides as indicated for 24 hours. Microscopy images were taken at time 0 and 24 hours of treatment. (FIG. 28B) Migration distances were measured using the Image J software platform. Error bars represent mean+/−standard deviation, asterisk designates a P value of <0.05.
# [3] = tested on: TGF-β-induced fibrotic response in human fibroblasts; experiment: Immunoblot of fibrotic markers in human primary fibroblasts; conditions: 100 pM TGF-β, different dosage of P16, 24 hrs (FIG. 34)
# Procedure: Human primary fibroblasts were starved for 36 hours, then treated with 20 pM TGF-β and 10 nM CD109-based peptide as indicated for 24 hours. (FIG. 29A) Cell lysates were separated by gel electrophoresis, transferred to a membrane, and immunoblotted with antibodies against fibronectin, PAI-1, CTGF, and α-tubulin. (FIG. 29B) The data shown represent the mean expression levels of 3 different biological replicates calculated by densitometry of fibronectin, PAI-1, and CTGF intensity levels normalized to α-tubulin. Error bars represent the standard deviation of the replicate experiments. A single asterisk designates a t test P value of less than 0.05, and a double asterisk indicates a P value of less than 0.01.
# Human fibroblasts were starved for 36 hours, then treated with 100 pM TGF-β and different dosage of P16 for 24 hrs. (FIG. 34A) Cell lysates were separated by gel electrophoresis, transferred to a membrane, and immunoblotted with antibodies against each of the indicated proteins. (FIG. 34B) Densitometry analysis was subsequently carried out to quantitate the expression of each of the indicated proteins as a function of P16 concentration.
sequence,measurement,setting,value
ETWIWLDTNMGSRIYQ [Peptide P16],inhibition of TGF-b induced cellular invasion,[1],significantly inhibit
same,suppression of HaCat cell migration,[2],suppress
same,"TGF-β-induced expression of fibronectin, collagen (COL1A1), PAI-1, α-SMA and CTGF",[3],attenuate
